Assay results from paper PMC8748444, “Hypocrates is a genetically encoded fluorescent biosensor for (pseudo)hypohalous acids and their derivatives” (Nature Communications, 2022).
Values belong to the compound of their own block, whether it stands above or below them.

How the values were obtained:
[1] = biological target: T1, Hypocrates (NemR-cpYFP biosensor) (Escherichia coli, UniProt P67430, C21S/C98S/C116S/C149S/C153S, form not given); assay: fluorescence titration, Ex500/Ex417 ratio; type: binding; settings: covalent (oxidation); 100 mM sodium phosphate pH 7.4, 25 °C; 0.5 µM protein
T1 construct: cpYFP (from HyPer-2) inserted with SAG/GT linkers into flexible loop of NemR^C106; pQE30; with Green fluorescent protein (circularly permuted yellow variant, cpYFP)

NemR^C106 [2] = biological target: T2, NemR^C106 (Escherichia coli, UniProt P67430, C21S/C98S/C116S/C149S/C153S); assay: intrinsic Trp fluorescence shift; type: binding; settings: covalent (oxidation); 2 µM protein, 50 µM oxidant; 100 mM sodium phosphate pH 7.4
T2 construct: pET-21b(+) in E. coli BL21 (DE3); Ni-Sepharose purified; DTT-reduced before assay; NemR homo-dimer

[3] = biological target: T3, Hypocrates (NemR-cpYFP biosensor) (Escherichia coli, UniProt P67430, C21S/C98S/C116S/C149S/C153S/K175A, form not given); assay: fluorescence excitation spectra in E. coli cells expressing the sensor; type: cell-based; settings: HypocratesKA; 80 µM oxidant; PBS pH 7.4
T3 construct: cpYFP (from HyPer-2) inserted with SAG/GT linkers into flexible loop of NemR^C106; pQE30; with Green fluorescent protein (circularly permuted yellow variant, cpYFP)

[4] = biological target: T4, Hypocrates (NemR-cpYFP biosensor) (Escherichia coli, UniProt P67430, C21S/C98S/C106S/C116S/C149S/C153S, form not given); assay: as above; type: cell-based; settings: HypocratesCS, key Cys replaced; 80 µM oxidant; PBS pH 7.4
T4 construct: cpYFP (from HyPer-2) inserted with SAG/GT linkers into flexible loop of NemR^C106; pQE30; with Green fluorescent protein (circularly permuted yellow variant, cpYFP)

[5] = biological target: T1, Hypocrates (NemR-cpYFP biosensor); assay: stopped-flow, cpYFP fluorescence (λex […] nm); type: binding; settings: covalent (oxidation, chlorination); 100 mM sodium phosphate pH 7.4, 25 °C; 0.5 µM protein
NemR^C106 [6] = biological target: T2, NemR^C106; assay: stopped-flow, intrinsic Trp fluorescence; type: binding; settings: covalent (oxidation); 100 mM sodium phosphate pH 7.4, 25 °C; 1 µM protein
[7] = biological target: Hypocrates (NemR-cpYFP biosensor) (E. coli); assay: SEC; Superdex 200 Increase 10/300 GL, 100 mM sodium phosphate buffer pH 7.4, 24 °C, 0.75 ml/min; samples incubated with 5 mM DTT or with N-chlorotaurine at 1:20 protein/oxidant ratio for 5 min before injection; absorbance at 415 nm; column calibrated with mass standards

T1 sequence (P67430 whole entry C21S/C98S/C116S/C149S/C153S, form open): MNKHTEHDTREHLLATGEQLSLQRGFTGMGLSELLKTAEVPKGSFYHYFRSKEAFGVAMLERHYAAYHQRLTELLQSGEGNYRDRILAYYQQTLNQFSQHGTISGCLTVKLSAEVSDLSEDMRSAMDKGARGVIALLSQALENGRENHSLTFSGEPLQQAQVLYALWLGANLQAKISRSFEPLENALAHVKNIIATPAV
T2 sequence (P67430 whole entry C21S/C98S/C116S/C149S/C153S): as the sequence (P67430 whole entry C21S/C98S/C116S/C149S/C153S, form open) above
T4 sequence (P67430 whole entry C21S/C98S/C106S/C116S/C149S/C153S, form open): as the sequence (P67430 whole entry C21S/C98S/C116S/C149S/C153S, form open) above, with C106S counted along it
T3 sequence (P67430 whole entry C21S/C98S/C116S/C149S/C153S/K175A, form open): as the sequence (P67430 whole entry C21S/C98S/C116S/C149S/C153S, form open) above, with K175A counted along it

sensitivity (slope of initial linear part) [1]: ~ 1.11 µM^−1
Compound: N#CSO [HOSCN]

Compound: OBr [NaOBr]
intrinsic Trp fluorescence shift (NemR^C106 [2]): The oxidants NaOCl, NCT, and NaOBr caused Trp-fluorescence shifts

second-order rate constant (kon) [5]: (1.4 ± 0.056) × 10^6 M^−1s^−1 | second-order rate constant (NemR^C106 [6]): ~ 3.0 × 10^5 M^−1s^−1
Compound: OCl [NaOCl]
fluorescence excitation spectra in E. coli cells expressing the sensor [3]: we found that HypocratesKA is still highly sensitive to NaOCl (Fig. 1i) | no response [4]: E. coli cells expressing HypocratesCS did not respond anymore to the addition of NaOCl

stoichiometry N [7]: 2
Compound: Hypocrates (NemR-cpYFP biosensor)
